{"source": "patent US20240292843A1", "about": "“BIOFILM REMOVAL” (PARTNERS FOR ENDOSCOPY LIMITED, priority 2021, published 2024)", "system": "biofilm containing Pseudomonas aeruginosa", "assay": "Biofilm treatment of endoscope biopsy channel pieces, CFU by serial dilution and plate counting (FIG. 1)", "format": "cell-based", "details": "mature biofilm on biopsy channel tubes; treatment applied for 5 minutes; 1.5 wt. % hydrogen peroxide or 1 mg/ml zeolite Y, aqueous; versus phosphate-buffer saline control; triplicate", "method": "The biopsy channel of the endoscope harbors a biofilm containing Pseudomonas aeruginosa. As a first step, to form the sample biopsy tubes harboring the biofilm, the biopsy channel was first cut into small pieces, which are then submerged into Müller-Hilton broth. A single colony of Pseudomonas aeruginosa was added to the broth. At a second step, the pieces were kept in the broth at 37° C. for 24 hours to allow the bacteria to grow. Also in the second step, the tube pieces were then washed 5 times with a copious amount of water to remove dangling bacteria, and to leave only fixed biofilm remaining on the surface of the tubes. The second step is then repeated three times to provide a mature biofilm. To provide the data of FIG. 1, different treatment mixtures were applied for 5 minutes to the tubes with mature biofilm. The tubes with mature biofilm were prepared using the method above. After the treatment mixture is applied, the tubes are washed. The tubes are then placed in a centrifuge tube floating in an ultrasonic bath to release bacteria in the biofilm into solution. The number of colony forming units (CFU) is calculated via serial dilution and plate counting method. Each experiment is performed in triplicate."}
{"smiles": "OO", "note": "[hydrogen peroxide]", "values": [{"measurement": "number of colony forming units of the Pseudomonas aeruginosa bacteria", "result": "causes a reduction"}]}
